The values that follow come from BindingDB's records for doi:10.1016/S0960-894X(00)80623-X (1992).

In the experiment the target is HMG-CoA reductase (Bos taurus). The experiment is described as follows: Compound was evaluated for inhibitory activity against HMG-CoA reductase in bovine ocular cell preparation.

One may read the IC50 as the concentration at which inhibition is half-maximal. Read a high IC50 as a need for much substance. In turn, `Cn1nnnc1C(/C=C/[C@@H](O)C[C@@H](O)CC(=O)O)=C(c1ccc(F)cc1)c1ccc(F)cc1` had an IC50 of 3000 nM.
